Values quoted from earlier work in US11992483B2, “Emulsions for local anesthetics” (Cali Pharmaceuticals, LLC, priority 2021, dated 2024).
Counter-ions that a name gives are not always drawn. Like-named read-outs stand apart in the source and are kept apart here.

Conditions: for log P: octanol/water

| solubility in water | log P | P (octanol:water partition coefficient) | log P (hydrochloride) | P (octanol:water partition coefficient) (hydrochloride) | SMILES |
| --- | --- | --- | --- | --- | --- |
| insoluble in water | 2.9 | 794 |  |  | CCCN1CCCC[C@H]1C(=O)Nc1c(C)cccc1C [ropivacaine free base, ropivacaine] |
|  |  |  | 1.1 | 14 | CCCN1CCCC[C@H]1C(=O)Nc1c(C)cccc1C [ropivacaine hydrochloride] |
